Among the test systems are EKVX NSCLC; HCT-116 colon; MOLT-4 leukemia; SK-MEL-2 melanoma; NCI-H460 lung; NCI-H23 lung; BT-549 breast; A498 renal; SNB-19 CNS; DU-145 prostate; 786-0 renal; IGROV1 ovarian; U251 CNS.
Experiment in all cases: NCI anticancer screen, dose series, 48 h

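Tested at 5 concentrations; 48 h exposure; 96-well plates; endpoints linearly interpolated, else capped at highest concentration. TGI: concentration producing complete growth inhibition.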 Bounds are passed on as bounds.

`NNc1nncc2n[nH]nc12`: the TGI with EKVX NSCLC, with HCT-116 colon, with MOLT-4 leukemia, in the assay on SK-MEL-2 melanoma, in the assay on NCI-H460 lung and in the assay on NCI-H23 lung was > 100 µM throughout. Besides, the TGI in the assay with BT-549 breast, in the assay with A498 renal, in the assay on SNB-19 CNS, with DU-145 prostate, with 786-0 renal and with IGROV1 ovarian was > 100 µM each time. Moreover, in the assay with U251 CNS, the TGI is > 100 µM.
Regarding `CC1=CC(=O)N(n2c(Cc3ccccc3)n[nH]c2=O)C1=O`, the TGI in the assay on EKVX NSCLC, in the assay on HCT-116 colon, in the assay with MOLT-4 leukemia, in the assay on SK-MEL-2 melanoma, in the assay with NCI-H460 lung and in the assay with NCI-H23 lung was > 100 µM each time. The TGI in the assay on BT-549 breast, with A498 renal, in the assay on SNB-19 CNS, in the assay with DU-145 prostate, in the assay with 786-0 renal and in the assay on IGROV1 ovarian was > 100 µM in each case. Further, in the assay on U251 CNS, the TGI was > 100 µM.
`COc1ccc(N2C(=O)C3ON(C(C(N)=O)c4ccccc4)C(c4cc5ccccc5c5ccccc45)C3C2=O)cc1` (stereo not given): the TGI in the assay on EKVX NSCLC is > 50 µM; in the assay on HCT-116 colon, > 50 µM; in the assay on MOLT-4 leukemia, 46.9 µM; in the assay on SK-MEL-2 melanoma it was > 50 µM; with NCI-H460 lung, > 50 µM; with NCI-H23 lung, > 50 µM. For the same molecule, the TGI in the assay on BT-549 breast, in the assay with A498 renal, in the assay with SNB-19 CNS, with DU-145 prostate, with 786-0 renal and in the assay with IGROV1 ovarian was > 50 µM in each case. Besides, the TGI in the assay with U251 CNS was > 50 µM.
`CC(C)(C)C1=CC(=C(c2ccc(-c3c4nc(c(-c5ccc(C(=C6C=C(C(C)(C)C)C(=O)C(C(C)(C)C)=C6)c6cc(C(C)(C)C)c(O)c(C(C)(C)C)c6)cc5)c5ccc([nH]5)c(-c5ccc(C(=C6C=C(C(C)(C)C)C(=O)C(C(C)(C)C)=C6)c6cc(C(C)(C)C)c(O)c(C(C)(C)C)c6)cc5)c5nc(c(-c6ccc(C(=C7C=C(C(C)(C)C)C(=O)C(C(C)(C)C)=C7)c7cc(C(C)(C)C)c(O)c(C(C)(C)C)c7)cc6)c6ccc3[nH]6)C=C5)C=C4)cc2)c2cc(C(C)(C)C)c(O)c(C(C)(C)C)c2)C=C(C(C)(C)C)C1=O`: the TGI with EKVX NSCLC, with HCT-116 colon, in the assay with MOLT-4 leukemia, with SK-MEL-2 melanoma, with NCI-H460 lung and in the assay on NCI-H23 lung was > 100 µM in each case. Moreover, the TGI with BT-549 breast, in the assay on A498 renal, in the assay with SNB-19 CNS, in the assay with DU-145 prostate, with 786-0 renal and in the assay on IGROV1 ovarian was > 100 µM in each case. Further, in the assay with U251 CNS, the TGI is > 100 µM.
On to `CC(=O)OC1(C)C=CC(=O)C=C1`, for which the TGI in the assay on EKVX NSCLC was > 100 µM; in the assay on HCT-116 colon, > 100 µM; in the assay with MOLT-4 leukemia, > 100 µM; in the assay with SK-MEL-2 melanoma, 98.4 µM; in the assay on NCI-H460 lung, 79.5 µM; in the assay on NCI-H23 lung, 75.2 µM. For the same molecule, the TGI was > 100 µM with BT-549 breast; 84 µM with A498 renal; > 100 µM in the assay on SNB-19 CNS; > 100 µM in the assay on DU-145 prostate; 47.9 µM with 786-0 renal; 31.6 µM with IGROV1 ovarian. This molecule registered a TGI with U251 CNS of 28.7 µM.
With `COC(=O)C1C(=O)C=CN([C@H](C)c2ccccc2)[C@@H]1Cc1ccc(OC)c(OCc2ccccc2)c1I` (stereo not given in full), the TGI is > 100 µM in the assay on EKVX NSCLC; 24.3 µM in the assay on HCT-116 colon; > 100 µM in the assay with MOLT-4 leukemia; 40 µM in the assay with SK-MEL-2 melanoma; 31.7 µM in the assay with NCI-H460 lung; 40.3 µM in the assay on NCI-H23 lung. For the same molecule, the TGI in the assay on BT-549 breast amounted to 38 µM; in the assay with A498 renal, 34.8 µM; in the assay on SNB-19 CNS, 86.4 µM; in the assay with DU-145 prostate, 42.6 µM; in the assay on 786-0 renal, 34.4 µM; in the assay on IGROV1 ovarian, 29.5 µM. The same molecule returned a TGI in the assay with U251 CNS of 39.7 µM.
On to `COC(=O)C1=C(C(=O)OC)c2cc(OC)ccc2C(C(=S)N(C)C)S1` (stereo not given), for which the TGI with EKVX NSCLC, with HCT-116 colon, in the assay on MOLT-4 leukemia, with SK-MEL-2 melanoma, in the assay on NCI-H460 lung and in the assay with NCI-H23 lung was > 100 µM each time. Also, the TGI with BT-549 breast, in the assay with A498 renal, in the assay with SNB-19 CNS, in the assay on DU-145 prostate, in the assay with 786-0 renal and in the assay with IGROV1 ovarian was > 100 µM each time. The TGI in the assay on U251 CNS was > 100 µM.
Take `Cc1ccc(/C=C2\CCC/C(=C\c3ccc(O)c(CN4CCCCC4)c3)C2=O)cc1`: the TGI in the assay on EKVX NSCLC was 27.8 µM; in the assay with HCT-116 colon it was 7.65 µM; in the assay on MOLT-4 leukemia, 9.03 µM; with SK-MEL-2 melanoma it was > 54.8 µM; in the assay on NCI-H460 lung it was 20 µM; in the assay with NCI-H23 lung, 18.3 µM. Moreover, the TGI amounted to 23.9 µM with BT-549 breast; 13.9 µM in the assay on A498 renal; 36.5 µM with SNB-19 CNS; 16.6 µM with DU-145 prostate; 14.3 µM in the assay with 786-0 renal; 26.5 µM in the assay on IGROV1 ovarian. Besides, the TGI in the assay with U251 CNS came to 37.6 µM.
`O=c1oc2cc(O)ccc2c(O)c1C(c1ccccc1F)c1c(O)c2ccc(O)cc2oc1=O`: the TGI in the assay with EKVX NSCLC, in the assay on HCT-116 colon, in the assay on MOLT-4 leukemia, in the assay on SK-MEL-2 melanoma, with NCI-H460 lung and in the assay with NCI-H23 lung was > 100 µM in each case. Further, the TGI is 48.4 µM with BT-549 breast; > 100 µM in the assay with A498 renal; > 100 µM in the assay on SNB-19 CNS; > 100 µM with DU-145 prostate; > 100 µM in the assay with 786-0 renal; > 100 µM in the assay on IGROV1 ovarian. Further, in the assay on U251 CNS, the TGI is > 100 µM.
Take `COC(=O)C(COC(C)=O)NC(=O)/C=C/c1ccc(O)c(OC(C)=O)c1` (stereo not given): the TGI in the assay with EKVX NSCLC, with HCT-116 colon, with MOLT-4 leukemia, in the assay on SK-MEL-2 melanoma, in the assay on NCI-H460 lung and with NCI-H23 lung was > 100 µM throughout. The TGI in the assay on BT-549 breast, in the assay on A498 renal, with SNB-19 CNS, in the assay on DU-145 prostate, with 786-0 renal and in the assay with IGROV1 ovarian was > 100 µM in each case. For the same molecule, the TGI in the assay on U251 CNS is > 100 µM.

Source of the values: PubChem BioAssay (NCI).
